Measurements taken from patent publication US20100130736A1, “METHODS OF CREATING AN INDEX” (priority 2008, published 2010).

Test system: quiescent A431 cells
Experiment: Epic DMR agonist mode (primary profile) in quiescent A431 cells
Assay type: cell-based, human
From the text: Epic® wavelength interrogation system (Corning Inc., Corning, N.Y.) was used for whole cell sensing. This system consists of a temperature-control unit, an optical detection unit, and an on-board liquid handling unit with robotics. The detection unit is centered on integrated fiber optics, and enables kinetic measures of cellular responses with a time interval of ±15 sec.
For biosensor cellular assays, molecule solutions were made by diluting the stored concentrated solutions with the HBSS (1× Hanks balanced salt solution, plus 20 mM Hepes, pH 7.1), and transferred into a 384 well polypropylene molecule storage plate to prepare a molecule source plate. Both molecule and marker source plates were made separately when a two-step assay was performed. In parallel, the cells were washed twice with the HBSS and maintained in 30 μl of the HBSS to prepare a cell assay plate. Both the cell assay plate and the molecule and marker source plate(s) were then incubated in the hotel of the reader system. After ˜1 hr of incubation the baseline wavelengths of all biosensors in the cell assay microplate were recorded and normalized to zero. Afterwards, a 2 to 10 minute continuous recording was carried out to establish a baseline, and to ensure that the cells reached a steady state. Cellular responses were then triggered by pipetting 10 μl of the marker solutions into the cell assay plate using the on-board liquid handler.
A DMR index was generated for four ligand molecules. Quiescent A431 and proliferating A549 cells were separately exposed to the ligand molecules for about 1 hr to generate their primary profiles, followed by stimulation with each marker at a fixed concentration (as mentioned in FIGS. 7 and 8) for another 1 hr or so to generate secondary profiles of the molecule against the panels of markers in both types of cells. Next, one or more specific DMR parameters were chosen as a readout for plotting the DMR index of the molecule. For the pinacidil DMR response in A549, the amplitude of the N-DMR (i.e., the amplitude 30 min after stimulation) was chosen. […]

Substance: EGF: natural agonist for endogenous EGF receptor in A431
- EC80 to trigger the DMR signal (fully quiescent A431 cells): ~32 nM
- DMR signal triggered (fully quiescent A431 cells, EGF ~32 nM, three phases P-DMR, N-DMR, RP-DMR, FIG. 4): distinct and robust DMR signal
- DMR response as a function of dose (quiescent A431 cells, data not shown): dose-dependent response
